Test results taken from patent publication US12667569B2, “Use of sepiapterin and metabolites thereof to treat radiation exposure” (PTC Therapeutics MP, Inc., priority 2019, dated 2026).

Columns and labels:
Format in all cases: in vivo, mice
exosomal miRNAs = test: Serum exosomal miRNA expression after irradiation; conditions: 30 days after IR; SP-treated vs vehicle-treated
Description: Blood was collected by cardiac puncture using EDTA vials. Blood samples were centrifuged 3,000×g for 25 minutes, and plasma fraction was aliquoted and saved in a vapor phase of liquid nitrogen. Exosomes were isolated from the plasma of mice at the time points shown in FIGS. 6A-6C using an Exosome isolation kit from 101Bio. Exosome concentrations were quantified by EXOCET Exosome Quantitation Kit (System Biosciences). Equal exosome number from 5 animals were combined for each time point, and total exosomal RNA was extracted by using miRNeasy Micro Kit (QIAGEN). For the miRNAs expression profiling the miRCURY LNA™ Universal RT microRNA PCR assay (QIAGEN) and ExiLENT SYBR® Green Maser Mix (QIAGEN) were used. The initial estimation of exosomal miRNAs expression was performed by using Serum/Plasma LNA™ miRNA PCR Panel (Cat. #YAHS-106Y. QIAGEN) on the QuantStudio 5 RT-PCR machine (Applied Biosystems).
The first group included let-7a-5p, miR-1, miR-106b-3p, miR-106b-5p, miR-126-3p, miR-181a-5p, miR-335-3p, and miR-335-5p. […] The second group included let-7g-5p, let-7i-5p, and miR-16-5p. There were no significant differences between males and females both in terms of exosomal miRNA expression altered by IR or the effects of sepiapterin on miRNA expression.

[1] = test system: cytokines' mRNAs in lung tissue; test: Cytokine mRNA expression (qPCR) in lung tissue after irradiation
Description: (§1) Total RNA was isolated from the lung and heart tissue samples following the manufacturers instructions with the RNeasy Mini kit (Qiagen). The RNA concentration was evaluated by using a NanoDrop ND-1000 spectrophotometer (Thermo Scientific). RNA purity was assessed by the ratios of A260/A280 and A260/A230. RNA integrity was evaluated by the ratio of 28S/18S ribosomal RNA (rRNA) and the RNA integrity number (RIN) using an Agilent 2100 BioAnalyzer (Agilent Technologies). cDNA synthesis and genomic DNA elimination were performed by using RT2 First Strand Kit (QIAGEN). Samples were amplified using RT2 SYBR® Green qPCR Mastermix probes from QIAGEN on the QuantStudio 5 RT-PCR machine (Applied Biosystems). The following RT2 qPCR Primer Assays (QIAGEN) were used: Mouse Actin-β (NM_007393), Mouse Bmp2 (NM_007553), Mouse Ccl2 (NM_011333), Mouse Ctgf (NM_010217), Mouse IL-1β (NM_008361), Mouse IL-6 (NM_031168), Mouse IL-10 (NM_010548), Mouse IL-17α (NM_010552), Mouse Runx2 (NM_001145920), Mouse Spp1 (NM_001204201), Mouse TGF-β1 (NM_011577), Mouse Trim72 (NM_001079932).

[2] = test system: cytokines' mRNAs in heart tissue; test: Cytokine mRNA expression (qPCR) in heart tissue after irradiation; conditions: 8 days, 30 days, 16 weeks after IR, SP vs vehicle
Description: as §1

SMILES: C[C@H](O)C(=O)C1=Nc2c([nH]c(N)nc2=O)NC1 [SP, Sepiapterin]
- exosomal expression of let-7a-5p, miR-1, miR-106b-3p, miR-106b-5p, miR-126-3p, miR-181a-5p, miR-335-3p, miR-335-5p (exosomal miRNAs): significantly lower in vehicle-treated animals comparing with SP-treated animals
- exosomal expression of let-7g-5p, let-7i-5p, miR-16-5p (exosomal miRNAs): significantly higher in vehicle-treated animals comparing with SP-treated animals
- relative expression of TGF-β1 mRNA ([1]; 16 weeks after IR, mean±SD, vehicle 3.26±0.339): 1.53±0.367
- relative expression of IL-17A mRNA ([1]; 16 weeks after IR, mean±SD, vehicle 4.5±0.824): 2.12±1.173
- relative expression of IL-6 mRNA ([1]; 16 weeks after IR, mean±SD, vehicle 28.85±5.987): 17.05±4.12
- relative expression of IL-17A mRNA ([1]; 8 days after IR, mean±SD, vehicle 9.19±2.783): 2.71±1.874
- relative expression of IL-6 mRNA ([1]; 8 days after IR, mean±SD, vehicle 16.88±4.91): 1.36±0.509
- relative expression of IL-1β mRNA ([1]; 8 days after IR, relative to non-irradiated control, mean±SD, vehicle 2.9±0.649): 1.54±0.825
- relative expression of Ccl2 mRNA ([1]; 30 days after IR, SP vs vehicle): no significant difference between Vehicle-treated and SP-treated animal groups
- relative expression of IL-1β mRNA ([1]; 30 days after IR, mean±SD, vehicle 3.39±0.532): 1.66±0.51
- relative expression of IL-17A mRNA ([1]; 30 days after IR, mean±SD, vehicle 5.65±2.263): 1.49±0.379
- relative expression of IL-6 mRNA ([1]; 30 days after IR, mean±SD, vehicle 9.09±0.533): 4.96±0.905
- expression of all evaluated cytokines (Bmp2, Ccl2, Ctgf, IL-1β, IL-6, IL-10, IL-17A, IL-33, Runx2, Spp2, TGF-β1, Trim72) [2]: no significant difference in expression between Vehicle-treated and SP-treated groups
